Source: patent US20160158200A1, “Combinations of Hepatitis C Virus Inhibitors” (priority 2013, published 2016)

System: HCV genotype-1a variant with glutamine 30 changed to glutamate in the NS5A protein
Format: cell-based
Conditions: test compound titrated with BMS-790052 fixed at 200 nM; genotype 1a Q30E replicon
How it was run: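 Synergy was assessed by combining several fixed amounts of an NS5A-targeting compound with a titration of the second compound of interest.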

| SMILES | Fold-Synergistic 1a (Q30E) [fold] |
| --- | --- |
| CC(C)[C@H](NC(=O)c1cnccn1)c1ncc(-c2ccc(-c3ccc(-c4cnc([C@@H](NC(=O)c5cnccn5)C(C)C)[nH]4)cc3)cc2)[nH]1 [Compound S-15] | >10 |
| CC(=O)c1ccc2cc3cc(-c4cnc([C@@H](NC(=O)C5CCC(F)(F)CC5)C(C)(C)C)[nH]4)ccc3cc2c1 [Compound B28] | >100 |
| CC1(C(O)C(C)(C)C(=O)N[C@H](c2nc(-c3ccc(-c4ccc(-c5c[nH]c([C@@H](NC(=O)C(C)(C)C(O)C6(C)CC6)C(C)(C)C)n5)cc4)cc3)c[nH]2)C(C)(C)C)CC1 (single isomer, unassigned) [Compound N-151A] | >100 |
| CC(C)[C@H](NC(=O)c1ccccc1Oc1ccccc1)c1ncc(-c2ccc(-c3ccc(-c4cnc([C@@H](NC(=O)c5ccccc5Oc5ccccc5)C(C)C)[nH]4)cc3)cc2)[nH]1 [Compound S-27] | >10 |
| CC(O)C1(C(=O)N[C@H](c2ncc(-c3ccc(-c4ccc(-c5cnc([C@@H](NC(=O)C6(C(C)O)CC6)C(C)(C)C)[nH]5)cc4)cc3)[nH]2)C(C)(C)C)CC1 (single isomer, unassigned) [Compound B73] | >100 |
| CC(C)(C)C(NC(=O)C1CC(F)CN1C(=O)OC1CCCC1)c1nc(-c2ccc(-c3ccc(-c4c[nH]c(C(NC(=O)C5CC(F)CN5C(=O)OC5CCCC5)C(C)(C)C)n4)cc3)cc2)c[nH]1 (stereo not shown) [Compound W-111] | >100 |
| CC(C)[C@H](NC(=O)C1(c2ccc(Cl)cc2)CCCC1)c1ncc(-c2ccc(-c3ccc(-c4cnc([C@@H](NC(=O)C5(c6ccc(Cl)cc6)CCCC5)C(C)C)[nH]4)cc3)cc2)[nH]1 [Compound S-2] | >100 |
| CC(C)[C@H](NC(=O)C1(C)CCCCC1)c1ncc(-c2ccc3c(c2)Cc2cc(-c4cnc([C@@H](NC(=O)C5(C)CCCCC5)C(C)C)[nH]4)ccc2-3)[nH]1.O=C(O)C(F)(F)F [Compound N-69] | >100 |
| CC[C@@H](NC(=O)OC)C(=O)N[C@H](c1ncc(-c2ccc(-c3ccc(-c4cnc([C@@H](NC(=O)[C@@H](CC)NC(=O)OC)C(C)C)[nH]4)cc3)cc2)[nH]1)C(C)C [Compound P-104] | >100 |
| CC(C)(C)C(NC(=O)C(C)(C)C1CCC(F)(F)CO1)c1nc(-c2ccc(-c3ccc(-c4c[nH]c(C(NC(=O)C(C)(C)C5CCC(F)(F)CO5)C(C)(C)C)n4)cc3)cc2)c[nH]1 (mixture of isomers) [Compound P-155] | >100 |
| CC(C)(CF)C(=O)N[C@H](c1nc(-c2ccc(-c3ccc(-c4c[nH]c([C@@H](NC(=O)C(C)(C)CF)C(C)(C)C)n4)cc3)cc2)c[nH]1)C(C)(C)C [Compound P-19] | >100 |
| CC(C)(C)[C@H](NC(=O)C1CCC(F)(F)CC1)c1ncc(C#Cc2ccc3cc(C#Cc4cnc([C@@H](NC(=O)C5CCC(F)(F)CC5)C(C)(C)C)[nH]4)ccc3c2)[nH]1 [Compound B65] | >100 |
| CN(C(=O)OC(C)(C)C)C(C)(C)C(=O)N[C@H](c1nc(-c2ccc(-c3ccc(-c4c[nH]c([C@@H](NC(=O)C(C)(C)N(C)C(=O)OC(C)(C)C)C(C)(C)C)n4)cc3)cc2)c[nH]1)C(C)(C)C.O=C(O)C(F)(F)F.O=C(O)C(F)(F)F [Compound L-8] | >100 |
| CC1(O)CCC(C(=O)N[C@H](c2nc(-c3ccc(-c4ccc(-c5c[nH]c([C@@H](NC(=O)C6CCC(C)(O)CC6)C(C)(C)C)n5)cc4)cc3)c[nH]2)C(C)(C)C)CC1 (stereo partly shown) [Compound W-175] | >100 |
| CC(C)[C@H](NC(=O)c1nccn1C)c1ncc(-c2ccc(-c3ccc(-c4cnc([C@@H](NC(=O)c5nccn5C)C(C)C)[nH]4)cc3)cc2)[nH]1 [Compound S-105] | <10 |
| CC(C)(C)[C@H](NC(=O)C1CCCCC1CO)c1nc(-c2ccc(-c3ccc(-c4c[nH]c([C@@H](NC(=O)C5CCCCC5CO)C(C)(C)C)n4)cc3)cc2)c[nH]1 (single isomer, unassigned) [Compound L-141a] | >100 |
| CO[C@@H](C(=O)N[C@H](c1ncc(-c2ccc(-c3ccc(-c4cnc([C@@H](NC(=O)[C@H](OC)c5ccccc5)C(C)C)[nH]4)cc3)cc2)[nH]1)C(C)C)c1ccccc1 [Compound P-75] | >100 |
| CC(C)CC(=O)N[C@@H](c1nc(-c2ccc(-c3ccc(-c4c[nH]c([C@H](NC(=O)CC(C)C)C(C)(C)C)n4)cc3)cc2)c[nH]1)C(C)(C)C [Compound N-67] | >10 |
| CC1(C(NC(=O)C(C)(C)C(O)C2(C)CC2)c2nc(-c3ccc(-c4ccc(-c5c[nH]c(C(NC(=O)C(C)(C)C(O)C6(C)CC6)C6(C)CC6)n5)cc4)cc3)c[nH]2)CC1 (mixture of isomers) [Compound N-156] | >100 |
| CC(C)(C(=O)N[C@H](c1nc(-c2ccc(-c3ccc(-c4c[nH]c([C@@H](NC(=O)C(C)(C)C(O)C5CCC(F)(F)CC5)C(C)(C)C)n4)cc3)cc2)c[nH]1)C(C)(C)C)C(O)C1CCC(F)(F)CC1 (single isomer, unassigned) [Compound N-143C] | >100 |
| CC(C)C(NC(=O)C1C2CC2CN1C(=O)OC(C)(C)C)c1nc(-c2ccc(-c3ccc(-c4c[nH]c(C(NC(=O)C5C6CC6CN5C(=O)OC(C)(C)C)C(C)C)n4)cc3)cc2)c[nH]1 (stereo not shown) [Compound W-74] | >100 |
| CC(O)C1(C(=O)N[C@H](c2ncc(-c3ccc(-c4ccc(-c5cnc([C@@H](NC(=O)C6(C(C)O)CC6)C(C)(C)C)[nH]5)cc4)cc3)[nH]2)C(C)(C)C)CC1 (single isomer, unassigned) [Compound B75] | >100 |
| CC(C)[C@H](NC(=O)C(C)(C)Oc1ccc(Cl)cc1)c1ncc(-c2ccc(-c3ccc(-c4cnc([C@@H](NC(=O)C(C)(C)Oc5ccc(Cl)cc5)C(C)C)[nH]4)cc3)cc2)[nH]1 [Compound P-65] | >100 |
| CC1(C)CC1C(=O)N[C@H](c1ncc(-c2ccc(-c3ccc(-c4cnc([C@@H](NC(=O)C5CC5(C)C)C(C)(C)C)[nH]4)cc3)cc2)[nH]1)C(C)(C)C (single isomer, unassigned) [Compound B79] | >100 |
| CN1CC(F)(F)C[C@H]1C(=O)N[C@H](c1nc(-c2ccc(-c3ccc(-c4c[nH]c([C@@H](NC(=O)[C@@H]5CC(F)(F)CN5C)C(C)(C)C)n4)cc3)cc2)c[nH]1)C(C)(C)C [Compound P-35] | >100 |
| O=C(c1cc2ccccc2o1)N1CCC[C@H]1c1ncc(-c2ccc(-c3ccc(-c4cnc([C@@H]5CCCN5C(=O)c5cc6ccccc6o5)[nH]4)cc3)cc2)[nH]1 [Compound S-122] | >10 |
| CC(C)(C)[C@H](NC(=O)C1CC12CCC(F)(F)CC2)c1nc(-c2ccc(-c3ccc(-c4c[nH]c([C@@H](NC(=O)C5CC56CCC(F)(F)CC6)C(C)(C)C)n4)cc3)cc2)c[nH]1 (single isomer, unassigned) [Compound Y-95] | >100 |
| CC(O)(CF)C(=O)N[C@H](c1nc(-c2ccc(-c3ccc(-c4c[nH]c([C@@H](NC(=O)C(C)(O)CF)C(C)(C)C)n4)cc3)cc2)c[nH]1)C(C)(C)C (single isomer, unassigned) [Compound N-139A] | >100 |
